From US20170107179A1 (Tetraphase Pharmaceuticals, Inc., priority 2010, published 2017)
≈ marks a conversion by molar mass, not a printed value. Where two headings read alike, the source gives them in different places.

How the values were obtained:
H. influenzae HI551 = test: Rat lung infection model; assay type: in vivo; details: H. influenzae intratracheal, 50 mg/kg orally at 5, 24, 48 hours
[1] = system: E. coli DH10B EC1153 Tet(X); test: MIC, E. coli DH10B recombinantly expressing tetracycline-resistance gene; details: arabinose-induced, ampicillin in medium
E. coli DH10B EC969 TetM = test: as above; details: arabinose-induced, ampicillin in medium
[2] = system: Crl:SKH1-hr hairless mouse; test: In vivo phototoxicity, Crl:SKH1-hr hairless mouse model; details: hairless mice, intracutaneous 0.0375 or 0.375 mg/mouse, UVA 20 J/cm^2, observed up to 3 days
Protocol: To estimate its potential to produce phototoxicity in vivo, Compound 102 was tested in validated in vivo and in vitro models of acute phototoxic activity at Charles River Laboratories (See Spielmann, H., et al., The second ECVAM workshop on phototoxicity testing. The report and recommendations of ECVAM workshop 42. Altern Lab Anim, 2000. 28(6): p. 777-814; and Peters, B. and H. G. Holzhutter, In vitro phototoxicity testing: development and validation of a new concentration response analysis software and biostatistical analyses related to the use of various prediction models. Altern Lab Anim, 2002. 30(4): p. 415-32, the entire teachings of both are incorporated herein by reference).
A vehicle control group was injected with normal saline. The pH of compound formulations was adjusted to 6.5±0.5 prior to injection. Immediately after administration, mice were lightly anesthetized via intraperitoneal injection of chloral hydrate in deionized water and then positioned on plastic tubing with laboratory tape. An aluminum foil mask with a single hole with a diameter of 1.3 cm (1.3 cm^2) was placed over the mid-dorsum injection site before UVA exposure. The distal administration site was shielded from UVA exposure. A UVA dose of no less than 20.0 and no more than 20.1 J/cm^2 at an intensity of 5±1 mW/cm^2 at the level of the mice was delivered during the exposure period. […]

E. coli DH10B EC970 TetK = test: MIC, E. coli DH10B recombinantly expressing tetracycline-resistance gene; details: arabinose-induced, ampicillin in medium
E. coli DH10B EC971 LacZ = test: MIC, E. coli DH10B recombinantly expressing control gene
[3] = system: E. coli DH10B EC1083 TetB; test: MIC, E. coli DH10B recombinantly expressing tetracycline-resistance gene; details: arabinose-induced, ampicillin in medium
[4] = system: E. coli DH10B EC1082 TetA; test: as above; details: arabinose-induced, ampicillin in medium
[5] = system: Gram-negative and Gram-positive organisms (clinical isolates); test: Broth microdilution MIC against clinical isolates (CLSI M7-A8), Table 9; assay type: cell-based
[6] = system: evaluated pathogens by tetracycline phenotype; test: Broth microdilution MIC by tetracycline phenotype (Table 14)
S. maltophila = test: Broth microdilution MIC by tetracycline resistance phenotype (Table 10); assay type: cell-based; set-up: unit not given beside the values
[7] = system: Legionella pneumophila, 70 isolates, serogroups 1-6; test: microbe, parasite or virus in culture; assay type: cell-based
[8] = system: Viridans group streptococci; test: Broth microdilution MIC by tetracycline resistance phenotype (Table 10); assay type: cell-based; set-up: unit not given beside the values
[9] = system: S. pneumoniae strain SP514; test: Immunocompetent CD-1 murine lung infection model; assay type: in vivo; details: immunocompetent CD-1 mice, SP514, orally dosed 30 mg/kg at 5, 24 and 36 hours post-infection (FIG. 2)
Protocol: Compound 102 was tested in an immunocompetent CD-1 murine model of lung infection challenged with S. pneumoniae strain SP514.

S. aureus SA101 = assay type: cell-based; details: SA101, plates containing compound at 5× the MIC
S. pneumoniae SP106 = assay type: cell-based; details: SP106, plates containing compound at 5× the MIC, 5% sheep blood
Gram-positive pathogens = test: Broth microdilution MIC, respiratory/skin pathogens (Table 12)
M. catarrhalis (n = 50) = test: Broth microdilution MIC, respiratory pathogens (Table 13)
[10] = Streptococcus intermedius, n=30
[11] = Staphylococcus aureus (MRSA PVL+), n=30
[12] = Stenotrophomonas maltophilia, n=29

CC[C@H]1OC(=O)[C@H](C)[C@@H](O[C@H]2C[C@@](C)(OC)[C@@H](O)[C@H](C)O2)[C@H](C)[C@@H](O[C@@H]2O[C@H](C)C[C@H](N(C)C)[C@H]2O)[C@](C)(O)C[C@@H](C)CN(C)[C@H](C)[C@@H](O)[C@]1(C)O [Azithromycin, azithromycin, reference compound]
reduction in lung CFU, oral comparator (H. influenzae HI551): 6.24±0.03 log10

CN(C)c1ccc(O)c2c1C[C@H]1C[C@H]3[C@H](N(C)C)C(O)=C(C(N)=O)C(=O)[C@@]3(O)C(O)=C1C2=O [Minocycline, minocycline]
MIC EC1153 Tet(X) [1]: 4 | MIC EC969 TetM (E. coli DH10B EC969 TetM): 64 | phototoxicity, skin reactions at site of UVA exposure [2]: no skin reaction at either dose | MIC EC970 TetK (E. coli DH10B EC970 TetK): 1 | MIC EC971 LacZ (E. coli DH10B EC971 LacZ; E. coli DH10B, arabinose-induced, ampicillin in medium): 0.5 | MIC EC1083 TetB [3]: 16 | MIC EC1082 TetA [4]: 8

CN(C)[C@@H]1C(O)=C(C(N)=O)C(=O)[C@@]2(O)C(O)=C3C(=O)c4c(O)cccc4[C@@](C)(O)[C@H]3C[C@@H]12 [Tetracycline, tetracycline]
MIC EC1153 Tet(X) [1]: >32 | MIC50 [5]: 0.25 mg/L (≈ 0.563 µM) | MIC90 [5]: > 8 mg/L | MIC50 ([5]; Acinetobacter lwoffii): 0.5 mg/L (≈ 1.13 µM) | MIC90 ([5]; Acinetobacter lwoffii): 4 mg/L (≈ 9 µM) | MIC50 ([5]; Enterobacter cloacae): 4 mg/L (≈ 9 µM) | MIC90 ([5]; Enterobacter cloacae): > 8 mg/L | MIC50 ([5]; Escherichia coli): > 8 mg/L | MIC90 ([5]; Escherichia coli): > 8 mg/L | MIC50 ([5]; Klebsiella aerogenes): 1 mg/L (≈ 2.25 µM) | MIC90 ([5]; Klebsiella aerogenes): 2 mg/L (≈ 4.5 µM) | MIC50 ([5]; Klebsiella pneumoniae): 8 mg/L (≈ 18 µM) | MIC90 ([5]; Klebsiella pneumoniae): > 8 mg/L | MIC50 ([5]; Morganella morganii): 2 mg/L (≈ 4.5 µM) | MIC90 ([5]; Morganella morganii): > 8 mg/L | MIC50 ([5]; Proteus vulgaris): 8 mg/L (≈ 18 µM) | MIC90 ([5]; Proteus vulgaris): > 8 mg/L | MIC50 ([5]; Serratia marcescens): > 8 mg/L | MIC90 ([5]; Serratia marcescens): > 8 mg/L | MIC50 ([5]; Staphylococcus aureus): 0.25 mg/L (≈ 0.563 µM) | MIC50 ([5]; Stenotrophomonas maltophilia): 8 mg/L (≈ 18 µM) | MIC90 ([5]; Stenotrophomonas maltophilia): > 8 mg/L | MIC50 ([5]; Streptococcus anginosus): 0.12 mg/L (≈ 0.27 µM) | MIC90 ([5]; Streptococcus anginosus): > 4 mg/L | MIC50 ([5]; Streptococcus intermedius): 0.25 mg/L (≈ 0.563 µM) | MIC90 ([5]; Streptococcus intermedius): > 4 mg/L | MIC50 ([5]; Streptococcus mitis): 0.5 mg/L (≈ 1.13 µM) | MIC90 ([5]; Streptococcus mitis): > 4 mg/L | MIC90 ([6]; F. faecalis, TET S, N=30): 500 mg/L (≈ 1130 µM) | MIC50 ([6]; Streptococcus pneumoniae, S. pneumoniae, TET NS, N=46): 16000 mg/L (≈ 36000 µM) | MIC50 (S. maltophila; TET NS, n=19): >8 | MIC90 (S. maltophila; TET NS, n=19): >8 | MIC50 (S. maltophila; TET S, n=10): 4 | MIC90 (S. maltophila; TET S, n=10): 4 | MIC EC969 TetM (E. coli DH10B EC969 TetM): 64 | MIC50 [7]: 4 mg/L (≈ 9 µM) | MIC90 [7]: 8 mg/L (≈ 18 µM) | MIC EC970 TetK (E. coli DH10B EC970 TetK): 64 | MIC EC971 LacZ (E. coli DH10B EC971 LacZ): 2 | MIC EC1083 TetB [3]: >128 | MIC EC1082 TetA [4]: >128 | MIC50 ([8]; TET NS, n=32): >4 | MIC90 ([8]; TET NS, n=32): >4 | MIC50 ([8]; TET S, n=65): 0.25 | MIC90 ([8]; TET S, n=65): 0.5

CC(=O)NC[C@H]1CN(c2ccc(N3CCOCC3)c(F)c2)C(=O)O1 [linezolid, Linezolid]
MIC50 ([5]; Staphylococcus aureus, Staphylococcus aureus (MRSA PVL+), n=30, read-out: MIC50): 1 mg/L (≈ 2.96 µM) | MIC90 ([5]; Staphylococcus aureus, Staphylococcus aureus (MRSA PVL+), n=30, read-out: MIC90): 2 mg/L (≈ 5.93 µM) | MIC50 ([5]; Staphylococcus aureus, Staphylococcus aureus MRSA (includes MRSA PVL+ group), n=105, read-out: MIC50): 2 mg/L (≈ 5.93 µM) | MIC90 ([5]; Staphylococcus aureus, Staphylococcus aureus MRSA (includes MRSA PVL+ group), n=105, read-out: MIC90): 4 mg/L (≈ 11.9 µM) | MIC50 ([5]; Streptococcus anginosus, n=20): 0.5 mg/L (≈ 1.48 µM) | MIC90 ([5]; Streptococcus anginosus, n=20): 1 mg/L (≈ 2.96 µM) | MIC50 [5, 10]: 1 mg/L (≈ 2.96 µM) | MIC90 [5, 10]: 1 mg/L (≈ 2.96 µM) | MIC50 ([5]; Streptococcus mitis, n=29): 1 mg/L (≈ 2.96 µM) | MIC90 ([5]; Streptococcus mitis, n=29): 1 mg/L (≈ 2.96 µM) | MIC50 ([5]; Streptococcus sanguis, n=18, read-out: MIC50): 0.5 mg/L (≈ 1.48 µM) | MIC90 ([5]; Streptococcus sanguis, n=18, read-out: MIC90): 1 mg/L (≈ 2.96 µM) | log10 reduction in CFU versus the 48 hour untreated control [9]: 3.56±0.63 log10

CO[C@H]1/C=C/O[C@@]2(C)Oc3c(C)c(O)c4c(O)c(c(/C=N/N5CCN(C)CC5)c(O)c4c3C2=O)NC(=O)/C(C)=C\C=C\[C@H](C)[C@H](O)[C@@H](C)[C@@H](O)[C@@H](C)[C@H](OC(C)=O)[C@@H]1C [rifampin, reference compound]
spontaneous resistance frequency (S. aureus SA101): 2.0×10^−8 | spontaneous resistance frequency (S. pneumoniae SP106): 2.88×10^−7

Gentamicin
MIC50 ([5]; Acinetobacter lwoffii, n=29): ≦0.25 μg/ml | MIC90 ([5]; Acinetobacter lwoffii, n=29): 1 mg/L | MIC50 ([5]; Enterobacter aerogenes, n=30): ≦0.25 μg/ml | MIC90 ([5]; Enterobacter aerogenes, n=30): 0.5 mg/L | MIC50 ([5]; Enterobacter cloacae, n=29): 0.5 mg/L | MIC90 ([5]; Enterobacter cloacae, n=29): >8 mg/L | MIC50 ([5]; Escherichia coli, n=40): 2 mg/L | MIC90 ([5]; Escherichia coli, n=40): >8 mg/L | MIC50 ([5]; Kiebsielia oxytoca, n=30): 0.5 mg/L | MIC90 ([5]; Kiebsielia oxytoca, n=30): 2 mg/L | MIC50 ([5]; Klebsiella pneumonia, n=27): >8 mg/L | MIC90 ([5]; Klebsiella pneumonia, n=27): >8 mg/L | MIC50 ([5]; Morganella morganii, n=30): 1 mg/L | MIC90 ([5]; Morganella morganii, n=30): >8 mg/L | MIC50 ([5]; Proteus vulgaris, n=29): 1 mg/L | MIC90 ([5]; Proteus vulgaris, n=29): >8 mg/L | MIC50 ([5]; Salmonella species, n=30): 0.5 mg/L | MIC90 ([5]; Salmonella species, n=30): 1 mg/L | MIC50 ([5]; Serratia marcescens, n=30): 0.5 mg/L | MIC90 ([5]; Serratia marcescens, n=30): 1 mg/L | MIC50 ([5]; Shigella species, n=30): 1 mg/L | MIC90 ([5]; Shigella species, n=30): 1 mg/L | MIC50 [5, 11]: 0.25 mg/L | MIC90 [5, 11]: 0.5 mg/L | MIC50 [5, 12]: >8 mg/L | MIC90 [5, 12]: >8 mg/L | MIC50 (Gram-positive pathogens; CoNS, MRCoNS (n = 26)): 0.25 mg/L | MIC90 (Gram-positive pathogens; CoNS, MRCoNS (n = 26)): > 8 mg/L | MIC50 (Gram-positive pathogens; CoNS, MSCoNS (n = 26)): 0.12 mg/L | MIC90 (Gram-positive pathogens; CoNS, MSCoNS (n = 26)): 0.25 mg/L | MIC50 (Gram-positive pathogens; E. faecalis, VAN NS (n = 48)): > 8 mg/L | MIC90 (Gram-positive pathogens; E. faecalis, VAN NS (n = 48)): > 8 mg/L | MIC50 (Gram-positive pathogens; E. faecalis, VAN S (n = 53)): > 8 mg/L | MIC90 (Gram-positive pathogens; E. faecalis, VAN S (n = 53)): > 8 mg/L | MIC50 (Gram-positive pathogens; E. faecium, VAN NS (n = 51)): 8 mg/L | MIC90 (Gram-positive pathogens; E. faecium, VAN NS (n = 51)): > 8 mg/L | MIC50 (Gram-positive pathogens; E. faecium, VAN S (n = 49)): 8 mg/L | MIC90 (Gram-positive pathogens; E. faecium, VAN S (n = 49)): > 8 mg/L | MIC50 (Gram-positive pathogens; S. aureus, MSSA (n = 50)): 0.25 mg/L | MIC90 (Gram-positive pathogens; S. aureus, MSSA (n = 50)): 0.5 mg/L | MIC50 (Gram-positive pathogens; S. saprophyticus (n = 36)): ≦0.06 mg/mL | MIC90 (Gram-positive pathogens; S. saprophyticus (n = 36)): ≦0.06 mg/mL | MIC50 (M. catarrhalis (n = 50)): 0.12 mg/L | MIC90 (M. catarrhalis (n = 50)): 0.12 mg/L
